Read-outs that look alike come from different tables or passages of the source.
Assays:
[1] = system: ciprofloxacin-susceptible E. coli isolate from a patient with a urinary tract infection; conditions: 0.75 ug/mL ciprofloxacin, 30 minutes, 1:1 BHI:urine, qPCR, 3 replicates
[2] = system: ciprofloxacin-susceptible E. coli isolate from a patient with a urinary tract infection; conditions: 0.75 ug/mL ciprofloxacin, 30 minutes, sample diluted 1:10, digital PCR, Poisson statistics
E. coli isolates = conditions: RNA target; cited from earlier work
[3] = system: susceptible UTI E. coli isolate; conditions: 2.5 ug/mL ciprofloxacin, 15 minutes, BHI
resistant UTI E. coli = conditions: 2.5 ug/mL ciprofloxacin, 15 minutes, BHI
[4] = system: resistant E. coli isolate; experiment: 23S rDNA copy number by digital PCR on a SlipChip after ciprofloxacin exposure, resistant isolate; assay type: cell-based; conditions: Example 4 resistant isolate, 2.5 ug/mL ciprofloxacin
[5] = system: E. coli isolates from patients with urinary tract infections and susceptible to various antibiotics; conditions: 1:1 BHI:urine, qPCR
E. coli = conditions: after treatment with trimethoprim, susceptible cells, vs baseline level of zero (Slager 2014); cited from earlier work

In the case of `O=C(O)c1cn(C2CC2)c2cc(N3CCNCC3)c(F)cc2c1=O` [ciprofloxacin], the “Cq of rDNA, treated sample” value [1] is given as 22.84+/−0.53, the “23S rDNA concentration, treated sample” value [2] is given as 148,031+/−7,103 copies/mL and the “Response to Ciprofloxacin: EcHS_A0999 dmsA anaerobic dimethyl sulfoxide reductase, A subunit” value (E. coli isolates) is given as “Same or Downregulated”. For the same compound, the “Response to Ciprofloxacin: EcHS_A1247 pepT peptidase T” value (E. coli isolates) was “Same or Downregulated”, the “Response to Ciprofloxacin: EcHS_A1333 narK nitrite extrusion protein 1” value (E. coli isolates) was “Same or Downregulated” and the “Response to Ciprofloxacin: EcHS_A1334 narG nitrate reductase, alpha subunit” value (E. coli isolates) was “Same or Downregulated”. The “Response to Ciprofloxacin: EcHS_A1335 narH nitrate reductase, beta subunit” value (E. coli isolates) was “Same or Downregulated”, the “Response to Ciprofloxacin: EcHS_A1557 fdnG formate dehydrogenase, nitrate inducible, alpha subunit, selenocysteine-containing” value (E. coli isolates) was “Same or Downregulated” and the “Response to Ciprofloxacin: EcHS_A1755 hypothetical protein” value (E. coli isolates) was “Same or Downregulated”. For the same compound, the “Response to Ciprofloxacin: EcHS_A1940 DNA damage-inducible protein YebG” value (E. coli isolates) was “Significantly Upregulated”, the “Response to Ciprofloxacin: EcHS_A1987 flhC transcriptional activator FlhC” value (E. coli isolates) was “Same or Downregulated” and the “Response to Ciprofloxacin: EcHS_A1988 flhD transcriptional activator FlhD” value (E. coli isolates) was “Same or Downregulated”. The “Response to Ciprofloxacin: EcHS_A2346 napF ferredoxin-type protein” value (E. coli isolates) was “Same or Downregulated”, the “Response to Ciprofloxacin: EcHS_A2835 recA recombinase A” value (E. coli isolates) was “Significantly Upregulated” and the “Response to Ciprofloxacin: EcHS_A4283 lexA LexA repressor” value (E. coli isolates) was “Significantly Upregulated”. For the same compound, the “Response to Ciprofloxacin: EcHS_A4284 dinF DNA-damage-inducible SOS response protein” value (E. coli isolates) was “Significantly Upregulated”, the “Response to Ciprofloxacin: EcHS_A4300 uvrA excinuclease ABC subunit A” value (E. coli isolates) was “Significantly Upregulated” and the “23S CT Treated” value [3] was 20.19/20.84. The “FeoB CT Treated” value [3] was 23.3/23.71, the “dnaAinh CT Treated” value [3] was 23.93/23.97 and the “recA CT Treated” value [3] was 24.81/24.65. The “23S CT Treated” value (resistant UTI E. coli) was 20.22/20.13, the “FeoB CT Treated” value (resistant UTI E. coli) was 23.19/23.1 and the “dnaAinh CT Treated” value (resistant UTI E. coli) was 23.68/23.89. For the same compound, the “recA CT Treated” value (resistant UTI E. coli) was 27.19/27.05 and the “change in rDNA copy number” value [4] was “No significant change”.

In the case of `O=C1CN(/N=C/c2ccc([N+](=O)[O-])o2)C(=O)N1` [nitrofurantoin], the “fold change in rDNA copy number” value ([5]; nitrofurantoin treatment, 15 minutes) was 1.62 fold.

In the case of `CN(C)[C@@H]1C(O)=C(C(N)=O)C(=O)[C@@]2(O)C(O)=C3C(=O)c4c(O)cccc4[C@@](C)(O)[C@H]3C[C@@H]12` [tetracycline], the “fold change in rDNA copy number” value ([5]; tetracycline treatment, 30 minutes) was 1.55 fold.

In the case of `COc1cc(Cc2cnc(N)nc2N)cc(OC)c1OC` [trimethoprim], the “relative DNA copy number as compared to the distance from the origin of replication (oriC)” value (E. coli) is given as “peaks close to the origin of replication”.

With trimethoprim/sulfamethoxazole the “fold change in rDNA copy number” value ([5]; trimethoprim/sulfamethoxazole treatment, 45 minutes) was 1.35 fold.
